# Assay results taken from a melting point compilation (Tetko et al.; mined from patent text by program, amines drawn as free bases though some values may be those of a salt).
row,melting point,SMILES
1,140 to 142 °C,N#CCSc1nc(NCc2ccc3c(c2)OCO3)cc(-c2ccccc2)n1
2,83.5 to 86.5 °C,CCOC(Oc1cc(Cl)cc(Cl)c1)C(=O)O (configuration not stated)
3,184 to 185 °C,CCCOc1ccc(CCC(=O)N2CCN(C)CC2)cc1-c1nc2c(C)cccc2c(=O)[nH]1
4,198 to 200 °C,Cc1ccc(-c2cccc(/C=C/C(=O)Nc3ccc(Cn4ccnc4)cc3)c2)cc1
5,88 to 90 °C,CCC(=O)N1C2CCC1CN(Cc1cc3ccccc3o1)C2
6,218 to 220 °C,COc1cc(Cn2ccc3ncnc-3c2)ccc1C(=O)N(C1CCCC1)C1CC(C)CC(C)C1 (configuration not stated)
7,102 to 105 °C,O=C1CCC(c2c[nH]c3cc(F)ccc23)CC1
8,68 to 70 °C,CC(C)(C)OC(=O)[C@@H]1CCCN1C(=O)C1CCCC1SC(=O)c1ccccc1 (some centres not stated)
9,81 °C,OC(c1ccccc1)c1nnnn1Cc1ccccc1 (configuration not stated)
10,119 to 120 °C,CCOC1Cc2cc3ccc(=O)oc3c(OC)c2O1 (configuration not stated)
11,105 to 106 °C,COc1cccc(CC(=O)O)c1OCCCc1cn(-c2ncc(Cl)cc2Cl)nc1C(C)C
12,65 to 66 °C,CSc1ccc(Oc2ccc(C#N)cc2)cc1
13,198 °C,O=C(NOC1CCCCO1)c1cnc(N2CCN(S(=O)(=O)c3ccc4ccccc4c3)CC2)nc1 (configuration not stated)
14,79 to 80 °C,COC(=O)C(C)Oc1ccc([N+](=O)[O-])cc1 (configuration not stated)
15,68 to 69.5 °C,CCCCCCCCCCCCCCCCOc1coc(CO)cc1=O
16,127 to 128 °C,"O=C1CCCN1CCCC(=O)N1CCC(C2c3ncc(Br)cc3CCc3cc(Cl)cc(Br)c32)CC1 (single isomer, unassigned; (+))"
17,93 to 96 °C,COC1=C(OC)C(=O)C2=C(CC(CCCCCCCCNC(C)=O)C2)C1=O
18,179 to 181 °C,O=C(NCCc1ccc(O)cc1)c1cccnc1
19,235 °C,O=C1NCC(c2ccco2)SCC1N1C(=O)c2ccccc2C1=O (configuration not stated)
20,158 °C,COc1ccc(-n2nc(-c3c(-c4ccccc4)nn4ccccc34)ccc2=O)cc1
21,104 to 105 °C,COc1ccc(-c2cnc3ccc(-c4nnc(SCc5cccc(C(F)(F)F)c5)o4)cn23)cc1
22,281 to 289 °C,N=C(N)Nc1ncc(Cl)c2ccc(S(=O)(=O)N(CCOC3CCCCO3)C3(C(=O)O)CCCC3)cc12 (configuration not stated)
23,123 to 125 °C,CC(=O)Oc1ccc(C(=O)O)cc1C(C)(C)C
24,141 to 148 °C,O=C(Cc1ccc(F)cc1)Nc1ccc(-n2nc(C3CC3)cc2C2CC2)cc1

row,melting point,SMILES
1,79 to 81 °C,Cc1c(CO)ncnc1N1CCCCC1
2,260 °C,Oc1c2c3c(ccnc3c3ccccc13)CCC2
3,192 to 193 °C,N#Cc1ccc(C(=O)C(Br)C(Br)c2ccc(C#N)cc2)cc1 (configuration not stated)
4,111 to 113 °C,CN(C[C@H]1CC[C@H](C(=O)O)CC1)c1ncc(Br)cn1
5,200 °C,Cc1nc(-c2cc(-n3c(=O)cc(C(F)(F)F)n(C)c3=O)ccc2Cl)sc1C
6,124 to 125 °C,C=C1COc2ccc(C(C)=O)cc2C(S(=O)(=O)c2ccccc2)C1 (configuration not stated)
7,250 to 251 °C,CC(C)(CCc1nnn[nH]1)c1ccc(C(=O)Nc2cn3cc(Cl)ccc3n2)cc1
8,113 to 114 °C,Cc1ccc(S(=O)(=O)N(C)c2ccc(Cl)cc2N=O)cc1
9,215 to 217 °C,O=[N+]([O-])c1oc2ccc(-c3nnn[nH]3)cc2c1-c1ccccc1
10,193 to 194 °C,COC(=O)c1ccc2c(=O)n(CC(C)C)c(CNC(=O)OC(C)(C)C)c(-c3ccc(C)cc3)c2c1
11,145 to 146 °C,C#CCN(Cc1cc2c(=O)n(C)c(CN3CCN(CC)CC3)nc2cc1Cl)c1ccc(C(=O)OC(C)(C)C)cc1
12,240 to 243 °C,CN(Cc1ccc(NC(=O)C2=Cc3cc(-c4ccc(OCC(N)=O)cc4)ccc3S(=O)(=O)CC2)cc1)C1CCOCC1
13,188 to 190 °C,O=C(NCCCn1cnc2cnc3ccccc3c21)c1ccccc1
14,200 to 206 °C,CCCN1C(=O)N2C[C@@H](Cc3ccccc3)N=C2c2c1nc(Br)n2Cc1ccccc1
15,141 to 142 °C,Cn1c(CO)nc2cc(Cl)cnc21
16,104 to 105 °C,Cc1onc(-c2ccc(Cl)o2)c1-c1ccc(F)cc1
17,72.5 to 74 °C,CNS(=O)(=O)Cc1ccccc1Br
18,136 °C,Cc1ccc(S(=O)(=O)N2[C@@H](CCC(N)=O)CC[C@H]2c2ccc(F)cc2)cc1 (racemic)
19,185 °C,O=C(O)C=Cc1cc([N+](=O)[O-])ccc1Br
20,141 to 142 °C,Cc1cn(Cc2ccc(N)cc2)cn1
21,130 to 132 °C,CC(C)Oc1cccc(CC(=O)OCc2c(-c3ccccc3)c3cc(Cl)ccc3c(=O)n2C)c1
22,115 to 117 °C,CC(C)CC(NC(=O)N1CCCCCC1)C(=O)NC(Cc1ccc(C#Cc2ccccc2)cc1)C(=O)NC(C)(C)C (configuration not stated)
23,209 to 213 °C,N#Cc1ccc(Nc2nc(Oc3c(Br)cc(CO)cc3Br)ccc2[N+](=O)[O-])cc1
24,74 to 76 °C,C[C@@H](S[C@H]1CC[C@H](/C=C/C=C/c2ccc(C(F)(F)F)cc2)CC1)[C@](O)(Cn1cncn1)c1ccc(F)cc1F

row,melting point,SMILES
1,87 to 93 °C,CCC(=N)NC(=O)OC
2,96 to 97 °C,Cn1c2c(c3ccccc31)CCOC2(C)C
3,279 to 281 °C,CCOC(=O)c1c[nH]c2nc(N3CCN(C(=O)OCC)CC3)c(F)cc2c1=O
4,108 to 109 °C,Cc1ccc(C2COc3c(C)c(C)c(Br)c(C)c32)cc1 (configuration not stated)
5,175 °C,O=C(CN1CCNCC1)Cn1c2ccc(Br)cc2c2cc(Br)ccc21
6,106 to 109 °C,O=C(Nc1ccc2c(c1)CCC2)C(=O)N1CCC(Cc2ccccc2)CC1
7,184 to 186 °C,CNS(=O)(=O)c1cn(C)c2c(OC)c(OC)c(OC)cc2c1=O
8,162 to 165 °C,CC1c2ccccc2-c2ccc(F)cc2N1S(=O)(=O)c1ccc(O)cc1 (configuration not stated)
9,172 to 174 °C,COc1ccc(C(=O)Nc2ccccc2)cc1NCc1cccc2ccccc12
10,108 to 110 °C,COC1=CC(=O)C2CC(O[Si](C)(C)C)=CC(OC)C2C1=O (configuration not stated)
11,163 to 164 °C,CSCS[C@H](C)[C@](O)(Cn1cncn1)c1ccc(Cl)cc1
12,154 to 156 °C,C=C(C)COc1ccc(NC(C)=O)c(C)c1C
13,70 to 74 °C,CCOC(=O)/C=C(C)/C(F)=C/C=C(\C)C=O
14,224 to 227 °C,Cc1ccc(Nc2nc(-c3cc(-c4ccccc4)no3)cs2)nc1
15,203 to 205 °C,CC(C)(C)OC(=O)NCCC(=O)NCc1cccc2c1CN(C1CCC(=O)NC1=O)C2=O (configuration not stated)
16,116 to 119 °C,C(=Cc1ccccc1)COC(CCc1ccccc1)Cn1ccnc1 (configuration not stated)
17,132 °C,COc1ccc(C/N=C/C(/C=N/Cc2ccc(OC)cc2)[N+](=O)[O-])cc1
18,99 to 100 °C,CCC(Oc1ccc(-c2ccc(C#N)c(Cl)c2)cc1)C(O)CCc1cccnc1 (configuration not stated)
19,192 °C,N#Cc1nc2ccc(Oc3ccc(C(F)(F)F)cc3Cl)cc2[nH]1
20,167 to 169 °C,Cc1ccccc1CNc1c2c(nc3ccccc13)CCCC2O (configuration not stated)
21,89 to 90 °C,COc1ccc([N+](=O)[O-])cc1C=O
22,26 to 28 °C,COCCCNc1ccc([N+](=O)[O-])cc1C
23,139 to 141 °C,CC(=O)C(C)S(=O)(=O)c1ccc(C=C(C)c2ccc3c(c2)C(C)(C)CCC3(C)C)cc1 (configuration not stated)
24,208 to 210 °C,O=C(O)CCCC1CCCNC1 (configuration not stated)

row,melting point,SMILES
1,52 to 53.5 °C,CCN(CC)c1ccc(C(=O)OC)nc1
2,143 to 144 °C,CCOC(=O)c1c(S(C)(=O)=O)c(N=O)c2ccccn12
3,116 to 120 °C,Cc1oc2ccccc2c1OC(C)(C)C(N)=O
4,188 to 192 °C,Nc1cccc(F)c1C(=O)NCC(=O)O
5,153 to 155 °C,CCC1c2ccc(C#N)n2-c2cc(F)c(F)cc2N1S(=O)(=O)c1ccc(OC)c(C)c1 (configuration not stated)
6,59 to 61 °C,CC(C)Oc1cc(N2C(=O)C3COCCN3C2C(=O)O)c(F)cc1Cl (configuration not stated)
7,61.5 to 62 °C,CCCCCCCCCc1nnc(C2=C(O)c3ccccc3S(=O)(=O)N2C)o1
8,137 to 138 °C,CCCCCCCCC(SCCCCCC)C(=O)Nc1c(SC)ccc2ncc(C)cc12 (configuration not stated)
9,153 to 155 °C,CCN1CCC(N2C(=O)c3ccc([N+](=O)[O-])cc3C2=O)CC1
10,128 °C,O=S1(=O)c2cccc3cccc(c23)N1CCN1CC=C(Cc2c[nH]c3ccc(F)cc23)CC1
11,91 to 93 °C,CC(C)(CO)NC(=O)c1cccnc1
12,174 to 175 °C,Cc1ccc(-c2ccc3c(c2)C=C(C(=O)Nc2ccc(CN4CCN(C)CC4)cc2)CC3)cc1
13,60 °C,COc1ccc2[nH]c(C(F)(F)F)cc2c1
14,126 to 129 °C,CCCCc1cc(NN)n2nccc2n1
15,124 to 126 °C,CCOC(=O)C=Cc1cc(OCc2ccccc2)ccc1-c1ccc(-c2cccc(C)c2)c(C(F)F)c1
16,44 to 45 °C,CCOC(=O)c1cc(-c2ccccc2)oc1C(F)(F)F
17,66 to 67 °C,COC(=O)c1cc(CO)ccc1O
18,158 to 164 °C,Cc1nc(C)c(-c2cccc(OC3SCC(O)C(O)C3O)c2)s1 (configuration not stated)
19,157 to 158 °C,CC(=O)Nc1sc(C(=O)OCc2ccccc2)c(C)c1C(=O)OC(C)(C)C
20,96 to 98 °C,CCOP(=O)(Cc1ccc(NC(=O)[C@H]2Cc3cc(OC)c(OC)cc3C(=O)CS2)cc1)OCC
21,94 to 96 °C,COc1cc(NC(=O)CCCCCN2CC(C)NC(C)C2)c2nccc(C)c2c1 (configuration not stated)
22,92 °C,CC(C)Cn1nc(-c2ccccc2)c(-c2ccccc2)c1CCl
23,129 °C,Cc1c(C)c2c(c(Cl)c1C=O)OCC2
24,155 to 157 °C,Cc1ccc2oc(NC(CN3CCN(Cc4ccc(Cl)c(Cl)c4)CC3)C(C)C)nc2c1 (configuration not stated)

row,SMILES,melting point
1,[O-][N+]1=C(c2ccccc2F)c2cc(Cl)ccc2N=C(C2CCCN2C=NO)C1 (configuration not stated),168 to 172 °C
2,C=CCOP(=O)(OCC=C)C(N)=O,91 to 94 °C
3,CN(C)C1(c2ccccc2)CCC(CNC(=O)N2CCCC(c3c[nH]c4ccccc34)C2)CC1 (configuration not stated),95 to 99 °C
4,CC(Cc1ccc(OCC(N)=O)cc1)NCC(OCCO)c1ccc(O)cc1 (configuration not stated),145 to 160 °C
5,COC(=N)N1CCC(c2n[nH]c3cc(F)ccc23)CC1,162 to 164 °C
6,CC12CCC3C4CCC(=O)C=C4CCC3C1CCC2=O (configuration not stated),163 to 169 °C
